Test system: Caco-2 cells
Test: apoA-I mediated 3H-cholesterol efflux from Caco-2 cells
Format: cell-based, human
Conditions: 24 h, 10 μg/ml apoA-I, mean and SEM of quadruplicate
Experimental: To assess the relevant biological activity of the LXR agonists, certain compounds were tested for their ability to increase cholesterol efflux from cultured human cells, as described by Sparrow et al., JBC volume 277, pages 10021–10027, Mar. 22, 2002. Caco-2 cells, which are of human origin, were obtained from ATCC and grown in Opti-MEM (Gibco #51985-034) containing 10% FCS, non-essential amino acids (Gibco #11140-050), and vitamins (Gibco # 11120-052). Caco-2 cells were plated at 100,000 cells/well in 48-well plates. After four days the cells had reached confluence, and were then labeled with ^3H-cholesterol by incubation for 24 hours in fresh growth media containing ^3H-cholesterol (10 μCi/ml). Following labeling with ^3H-cholesterol, cells were washed and incubated an additional 24 hours in serum-free media containing 1 mg/ml BSA, to allow for equilibration of ^3H-cholesterol with intracellular cholesterol. Cholesterol efflux was initiated by adding 10 μg/ml apoA-I, with or without compound, in serum-free medium. Compounds were added to cell culture medium from DMSO solutions, and control cells received an equivalent amount of DMSO, never exceeding 0.1%. After 24 hours, media were harvested and cells dissolved in 0.1 M NaOH. Media were briefly centrifuged to remove non-adherent cells, and then aliquots of both the supernatants and the dissolved cells were subjected to liquid scintillation spectrometry to determine radioactivity. Cholesterol efflux is expressed as a percentage, calculated as (^3H-cholesterol in medium/(^3H-cholesterol in medium+^3H-cholesterol in cells))×100.

| Compound | % cholesterol efflux (compound concentration 1 nM) [%] | % cholesterol efflux (compound concentration 10 nM) [%] | % cholesterol efflux (compound concentration 100 nM) [%] | % cholesterol efflux (compound concentration 1000 nM) [%] | % cholesterol efflux (compound concentration 5000 nM) [%] |
| --- | --- | --- | --- | --- | --- |
| CCCc1c(OCCCN2C(=O)NC(C)(c3ccccc3)C2=O)ccc2c(C(F)(F)F)noc12 (racemic) [Example 25, rac-5-methyl-5-phenyl-3-(3-{[7-propyl-3-(trifluoromethyl)-1,2-benzisoxazol-6-yl]oxy}propyl)imidazolidine-2,4-dione] | 3.4 ± 0.3 | 3.5 ± 0.09 | 4.5 ± 0.09 | 4.6 ± 0.09 | 5.2 ± 0.2 |
| CCCc1c(OCCCN2C(=O)CSC2=O)ccc2c(C(F)(F)F)noc12 [Example 16, 3-(3-{[7-propyl-3-(trifluoromethyl)-1,2-benzisoxazol-6-yl]oxy}propyl)thiazolidine-2,4-dione] | 3.2 ± 0.3 | 4.0 ± 0.2 | 8.8 ± 0.7 | 10.3 ± 0.3 | 6.6 ± 0.4 |

— patent publication US7125865B2, “Therapeutic compounds for treating dyslipidemic conditions” (Merck & Co., Inc., priority 2002, dated 2006)
